The source made the active and inactive calls. No rule for the calls is given here.
Columns and labels:
HSP70 = assay: Hsp70 and Hsp90 expression induction, late-stage follow-up, cell-based, Western blot, chemiluminescence (AID 686975); conditions: cells, stronger effect = higher value
[1] = biological target: Heat shock protein HSP 90-alpha (Homo sapiens) (UniProt P07900); assay: as above; conditions: cells, stronger effect = higher value

In the case of `CC(=O)c1ccc(NC(=O)c2coc(=O)c(Br)c2)cc1`, the up-regulation (HSP70; high dose (five times the IC50) 53.5 µM, low dose (half the IC50) 5.4 µM) is reported as less than 10% and the up-regulation ([1]; HSP90, high dose (five times the IC50) 53.5 µM, low dose (half the IC50) 5.4 µM) is reported as less than 10%.

In the case of `CC(C)CNC(=O)c1coc(=O)c(Br)c1`, the up-regulation (HSP70; high dose (five times the IC50) 37.5 µM, low dose (half the IC50) 3.8 µM) is reported as less than 10% and the up-regulation ([1]; HSP90, high dose (five times the IC50) 37.5 µM, low dose (half the IC50) 3.8 µM) is reported as less than 10%.

With `COC(=O)c1ccc2nc(NC(=O)C3CC3)sc2c1` the up-regulation (HSP70; high dose (five times the IC50) 246 µM, low dose (half the IC50) 24.6 µM) was less than 10% and the up-regulation ([1]; HSP90, high dose (five times the IC50) 246 µM, low dose (half the IC50) 24.6 µM) was less than 10%.

With `O=C(NCCc1ccc(F)cc1)c1coc(=O)c(Br)c1` the up-regulation (HSP70; high dose (five times the IC50) 10.5 µM, low dose (half the IC50) 1.1 µM) was less than 10% and the up-regulation ([1]; HSP90, high dose (five times the IC50) 10.5 µM, low dose (half the IC50) 1.1 µM) was less than 10%.

For `CCCCCCCCOc1ccc(NC(=O)c2coc(=O)c(Br)c2)cc1`, the up-regulation (HSP70; high dose (five times the IC50) 64.5 µM, low dose (half the IC50) 6.5 µM) was less than 10% and the up-regulation ([1]; HSP90, high dose (five times the IC50) 64.5 µM, low dose (half the IC50) 6.5 µM) was < 50% (inactive).

Work on `COc1ccc(NC(=O)c2ccc(NC(=O)c3coc(=O)c(Br)c3)cc2)cc1` yielded an up-regulation (HSP70; high dose (five times the IC50) 60.5 µM, low dose (half the IC50) 6.1 µM) of less than 10% and an up-regulation ([1]; HSP90, high dose (five times the IC50) 60.5 µM, low dose (half the IC50) 6.1 µM) of less than 10%.

`Cc1cc(NC(=O)c2coc(=O)c(Br)c2)ccc1C(C)C` was tested, and the up-regulation (HSP70; high dose (five times the IC50) 44.5 µM, low dose (half the IC50) 4.5 µM) was less than 10% and the up-regulation ([1]; HSP90, high dose (five times the IC50) 44.5 µM, low dose (half the IC50) 4.5 µM) was less than 10%.

Work on `O=C(NCc1ccco1)c1coc(=O)c(Br)c1` yielded an up-regulation (HSP70; high dose (five times the IC50) 24 µM, low dose (half the IC50) 2.4 µM) of less than 10% and an up-regulation ([1]; HSP90, high dose (five times the IC50) 24 µM, low dose (half the IC50) 2.4 µM) of less than 10%.

In the case of `Cc1cccc(NC(=O)c2coc(=O)c(Br)c2)n1`, the up-regulation (HSP70; high dose (five times the IC50) 136.5 µM, low dose (half the IC50) 13.7 µM) is reported as less than 10% and the up-regulation ([1]; HSP90, high dose (five times the IC50) 136.5 µM, low dose (half the IC50) 13.7 µM) is reported as < 50% (inactive).

`O=C(NCc1cccnc1)c1coc(=O)c(Br)c1` showed an up-regulation (HSP70; high dose (five times the IC50) 17.5 µM, low dose (half the IC50) 1.8 µM) of less than 10% and an up-regulation ([1]; HSP90, high dose (five times the IC50) 17.5 µM, low dose (half the IC50) 1.8 µM) of less than 10%.

In the case of `CCOc1ccc(-c2nc(CN3CCCCC3CCn3cccn3)c(C)o2)cc1` (configuration not stated), the up-regulation (HSP70; high dose (five times the IC50) 111 µM, low dose (half the IC50) 11.1 µM) is reported as less than 10% and the up-regulation ([1]; HSP90, high dose (five times the IC50) 111 µM, low dose (half the IC50) 11.1 µM) is reported as less than 10%.

`O=C(Nc1ccc(F)cc1)c1coc(=O)c(Br)c1` showed an up-regulation (HSP70; high dose (five times the IC50) 17 µM, low dose (half the IC50) 1.7 µM) of less than 10% and an up-regulation ([1]; HSP90, high dose (five times the IC50) 17 µM, low dose (half the IC50) 1.7 µM) of less than 10%.

For `COc1ccc(NC(=O)c2coc(=O)c(Br)c2)cc1`, the up-regulation (HSP70; high dose (five times the IC50) 12 µM, low dose (half the IC50) 1.2 µM) was less than 10% and the up-regulation ([1]; HSP90, high dose (five times the IC50) 12 µM, low dose (half the IC50) 1.2 µM) was less than 10%.

Molecule `CC(NC(=O)c1coc(=O)c(Br)c1)C1C2CCC3CC(C2)CC31` (configuration not stated) has an up-regulation (HSP70; high dose (five times the IC50) 9 µM, low dose (half the IC50) 0.9 µM) of less than 10% and an up-regulation ([1]; HSP90, high dose (five times the IC50) 9 µM, low dose (half the IC50) 0.9 µM) of less than 10%.

For `CCCCOc1cccc(NC(=O)c2coc(=O)c(Br)c2)c1`, the up-regulation (HSP70; high dose (five times the IC50) 114 µM, low dose (half the IC50) 11.4 µM) was less than 10% and the up-regulation ([1]; HSP90, high dose (five times the IC50) 114 µM, low dose (half the IC50) 11.4 µM) was < 50% (inactive).

Work on `O=C(Nc1ccccc1I)c1coc(=O)c(Br)c1` yielded an up-regulation (HSP70; high dose (five times the IC50) 147 µM, low dose (half the IC50) 14.7 µM) of less than 10% and an up-regulation ([1]; HSP90, high dose (five times the IC50) 147 µM, low dose (half the IC50) 14.7 µM) of less than 10%.

From PubChem BioAssay AID686975 (The Scripps Research Institute Molecular Screening Center, 2013)
